Reference: PubChem BioAssay AID330 (DTP/NCI, 2004)
Values joined by “and” are separate entries in the source; they are usually repeats but may differ in a detail not shown here. Equal values may be shown once. Toxic doses and inconclusive results are not listed.

Tested on: P388 leukemia ip, CD2F1 mice, survival T/C
Experiment: NCI In Vivo Anticancer Drug Screen. Data for tumor model P388 Leukemia (intraperitoneal) in CD2F1 (CDF1) mice
Details: endpoint: median survival time, higher = longer survival
Summary of the method: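 Mice carrying the transplanted tumor received test compound or vehicle. Survival was recorded in each group, and the value is the treated-group measurement divided by that of the vehicle-treated control group.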

[1] = dose: 60.0 mg/kg/injection, schedule: Q01DX005 (ip), vehicle: Klucel (hydroxypropylcellulose) (HPC)
[2] = dose: 120.0 mg/kg/injection, schedule: Q01DX005 (ip), vehicle: Klucel (hydroxypropylcellulose) (HPC)
[3] = dose: 240.0 mg/kg/injection, schedule: Q01DX005 (ip), vehicle: Klucel (hydroxypropylcellulose) (HPC)
[4] = dose: 50.0 mg/kg/injection, schedule: Q01DX009 (ip), vehicle: saline
[5] = dose: 100.0 mg/kg/injection, schedule: Q01DX009 (ip), vehicle: saline
[6] = dose: 200.0 mg/kg/injection, schedule: Q01DX009 (ip), vehicle: saline
[7] = dose: 50.0 mg/kg/injection, schedule: Q01DX009 (ip), vehicle: saline with Tween-80
[8] = dose: 100.0 mg/kg/injection, schedule: Q01DX009 (ip), vehicle: saline with Tween-80
[9] = dose: 200.0 mg/kg/injection, schedule: Q01DX009 (ip), vehicle: saline with Tween-80
[10] = dose: 60.0 mg/kg/injection, schedule: Q01DX005 (ip), vehicle: saline with Tween-80
[11] = dose: 120.0 mg/kg/injection, schedule: Q01DX005 (ip), vehicle: saline with Tween-80
[12] = dose: 240.0 mg/kg/injection, schedule: Q01DX005 (ip), vehicle: saline with Tween-80
[13] = dose: 50.0 mg/kg/injection, schedule: Q01DX005 (ip), vehicle: Klucel (hydroxypropylcellulose) (HPC)
[14] = dose: 100.0 mg/kg/injection, schedule: Q01DX005 (ip), vehicle: Klucel (hydroxypropylcellulose) (HPC)
[15] = dose: 200.0 mg/kg/injection, schedule: Q01DX005 (ip), vehicle: Klucel (hydroxypropylcellulose) (HPC)
[16] = dose: 100.0 mg/kg/injection, schedule: Q01DX001 (ip), vehicle: Klucel (hydroxypropylcellulose) (HPC)
[17] = dose: 200.0 mg/kg/injection, schedule: Q01DX001 (ip), vehicle: Klucel (hydroxypropylcellulose) (HPC)
[18] = dose: 400.0 mg/kg/injection, schedule: Q01DX001 (ip), vehicle: Klucel (hydroxypropylcellulose) (HPC)
[19] = dose: 50.0 mg/kg/injection, schedule: Q01DX005 (ip), vehicle: saline with Tween-80
[20] = dose: 100.0 mg/kg/injection, schedule: Q01DX005 (ip), vehicle: saline with Tween-80

CCN(Cc1c(C)[nH]c2cc(N(C)C)ccc2c1=O)Cc1c(C)[nH]c2cc(N(C)C)ccc2c1=O
T/C [1]: 90 % of control | T/C [2]: 92 % of control | T/C [3]: 91 % of control

c1ccc2c(c1)CCCN2c1nc(N2CCCC2)nc(N2CCOCC2)n1
T/C [4]: 99 % of control | T/C [5]: 89 % of control | T/C [6]: 92 % of control

O=C(CC1C2CC3CC(C2)CC1C3)C1C2CC3CC(C2)CC1C3 (stereo not given)
T/C [7]: 97 % of control | T/C [8]: 97 % of control | T/C [9]: 97 % of control

c1ccc2c(-c3cc(-c4cc(-c5cccc6ccccc56)on4)no3)cccc2c1
T/C [10]: 106 % of control | T/C [11]: 97 % of control | T/C [12]: 100 % of control

CN(c1ccccc1)c1c2c(oc(=O)c1Cl)CCSC2
T/C (dose: 100.0 mg/kg/injection, schedule: Q04DX003 (ip), vehicle: saline with Tween-80): 94 % of control | T/C (dose: 200.0 mg/kg/injection, schedule: Q04DX003 (ip), vehicle: saline with Tween-80): 98 % of control | T/C (dose: 400.0 mg/kg/injection, schedule: Q04DX003 (ip), vehicle: saline with Tween-80): 91 % of control

Cc1cc2c(cc1Cl)ncn2C
T/C [4]: 96 % of control | T/C [5]: 112 % of control | T/C [6]: 118 % of control

O=[N+]([O-])c1ccc(N/N=C/CCl)c([N+](=O)[O-])c1
T/C (dose: 11.0 mg/kg/injection, schedule: Q04DX003 (ip), vehicle: Klucel (hydroxypropylcellulose) (HPC)): 100 % of control | T/C (dose: 11.0 mg/kg/injection, schedule: Q04DX003 (ip), vehicle: saline with Tween-80): 108 % of control | T/C (dose: 16.5 mg/kg/injection, schedule: Q04DX003 (ip), vehicle: Klucel (hydroxypropylcellulose) (HPC)): 100 % of control | T/C (dose: 16.5 mg/kg/injection, schedule: Q04DX003 (ip), vehicle: saline with Tween-80): 100 % of control | T/C (dose: 25.0 mg/kg/injection, schedule: Q04DX003 (ip), vehicle: Klucel (hydroxypropylcellulose) (HPC)): 98 % of control | T/C (dose: 25.0 mg/kg/injection, schedule: Q04DX003 (ip), vehicle: saline with Tween-80): 108 % of control | T/C (dose: 37.5 mg/kg/injection, schedule: Q04DX003 (ip), vehicle: Klucel (hydroxypropylcellulose) (HPC)): 97 % of control | T/C (dose: 37.5 mg/kg/injection, schedule: Q04DX003 (ip), vehicle: saline with Tween-80): 104 % of control

C=C(C)C(=O)OC1C/C(CO)=C\C(O)C/C(C)=C/C2OC(=O)C(=C)C21 (stereo not given)
T/C (dose: 1.25 mg/kg/injection, schedule: Q01DX009 (ip), vehicle: saline + alcohol): 121 % of control | T/C (dose: 2.5 mg/kg/injection, schedule: Q01DX009 (ip), vehicle: saline + alcohol): 104 % of control | T/C (dose: 10.0 mg/kg/injection, schedule: Q01DX009 (ip), vehicle: saline + alcohol): 159 % of control | T/C (dose: 20.0 mg/kg/injection, schedule: Q01DX009 (ip), vehicle: saline + alcohol): 167 % of control

CCc1nn(CCCN2CCN(c3cccc(Cl)c3)CC2)c(=O)n1CC
T/C [4]: 114 % of control | T/C [5]: 116 % of control

C=CC(C)NC(=S)NNC(=S)NC (stereo not given)
T/C [13]: 101 % of control | T/C [14]: 100 % of control | T/C [15]: 101 % of control

C=COc1ccccc1C1=NC(C(C)(C)C)(C(C)(C)C)P(OC)(OC)(OC)O1
T/C (dose: 100.0 mg/kg/injection, schedule: Q04DX003 (ip), vehicle: saline): 102 % of control | T/C (dose: 200.0 mg/kg/injection, schedule: Q04DX003 (ip), vehicle: saline): 108 % of control | T/C (dose: 400.0 mg/kg/injection, schedule: Q04DX003 (ip), vehicle: saline): 100 % of control

CCO/C(C)=N/n1c(C)nc2[nH]ncc2c1=O
T/C [10]: 99 % of control | T/C [11]: 106 % of control | T/C [12]: 106 % of control

c1ccc(C2CO2)cc1 (stereo not given)
T/C [16]: 106 % of control | T/C [17]: 100 % of control | T/C [18]: 102 % of control

CCc1nc(N)nc(N)c1-c1ccc2nn(-c3ccccc3)[n+]([O-])c2c1
T/C [13]: 108 % of control | T/C [15]: 87 % of control

COc1cc2c(cc1OC)[C@H]1O[C@H](OC)c3c(ccc4c3OCO4)[C@H]1N(C)CC2
T/C (dose: 7.25 mg/kg/injection, schedule: Q01DX005 (ip), vehicle: Klucel (hydroxypropylcellulose) (HPC)): 106 % of control | T/C (dose: 14.5 mg/kg/injection, schedule: Q01DX005 (ip), vehicle: Klucel (hydroxypropylcellulose) (HPC)): 100 % of control | T/C (dose: 29.0 mg/kg/injection, schedule: Q01DX005 (ip), vehicle: Klucel (hydroxypropylcellulose) (HPC)): 106 % of control | T/C (dose: 58.0 mg/kg/injection, schedule: Q01DX005 (ip), vehicle: Klucel (hydroxypropylcellulose) (HPC)): 96 % of control

CN(C)CCCNC(=O)NCCCCCCNC(=O)NCCCN(C)C
T/C [19]: 93 % of control | T/C [20]: 86 % of control

Nc1nc(N)c2nc(Sc3ccc(F)cc3)c(N)nc2n1
T/C (dose: 25.0 mg/kg/injection, schedule: Q01DX005 (ip), vehicle: Klucel (hydroxypropylcellulose) (HPC)): 97 % of control | T/C [13]: 94 % of control | T/C [14]: 88 % of control

O=c1[nH]c(=O)n(O)c2nc[nH]c12
T/C (dose: 12.5 mg/kg/injection, schedule: Q01DX009 (ip), vehicle: saline with Tween-80): 90 % of control | T/C (dose: 25.0 mg/kg/injection, schedule: Q01DX009 (ip), vehicle: saline with Tween-80): 100 % of control | T/C [7]: 90 % of control

O=[N+]([O-])C1(Cl)CCC(Cl)([N+](=O)[O-])CC1 (stereo not given)
T/C [16]: 100 % of control | T/C [17]: 104 % of control

O=C1C2=C(Nc3cc([N+](=O)[O-])ccc3N2)OC1c1c[nH]c2ccc(COc3ccccc3)cc12 (stereo not given)
T/C [10]: 93 % of control | T/C [11]: 94 % of control

NC(=O)N1C(=O)C=CC1=O
T/C [13]: 92 % of control | T/C [14]: 104 % of control

COP(=O)(OC)C1(C)CO1 (stereo not given)
T/C (dose: 50.0 mg/kg/injection, schedule: Q01DX009 (ip), vehicle: Klucel (hydroxypropylcellulose) (HPC)): 87 % of control | T/C (dose: 100.0 mg/kg/injection, schedule: Q01DX009 (ip), vehicle: Klucel (hydroxypropylcellulose) (HPC)): 91 % of control | T/C (dose: 200.0 mg/kg/injection, schedule: Q01DX009 (ip), vehicle: Klucel (hydroxypropylcellulose) (HPC)): 86 % of control

CC(=O)OC1CSS(=O)CC1OC(C)=O (stereo not given)
T/C (dose: 100.0 mg/kg/injection, schedule: Q04DX002 (ip), vehicle: saline): 100 % of control | T/C (dose: 200.0 mg/kg/injection, schedule: Q04DX002 (ip), vehicle: saline): 109 % of control

S=C(CC(=S)N1CCOCC1)N1CCOCC1
T/C [10]: 103 % of control | T/C [11]: 89 % of control | T/C [12]: 97 % of control

CNC(=O)OCc1c(COC(=O)NC)c(-c2ccc(F)cc2)n(C)c1C
T/C (dose: 50.0 mg/kg/injection, schedule: Q01DX009 (ip), vehicle: distilled water + Tween-80): 91 % of control

O=C(O)C(Cc1ccc(O)cc1)NC(c1ccccc1)P(=O)(O)O (stereo not given)
T/C [10]: 108 % of control | T/C [11]: 98 % of control | T/C [12]: 99 % of control

N#CC1CC(=O)c2ccccc2C1=O (stereo not given)
T/C [13]: 102 % of control | T/C [14]: 104 % of control | T/C [15]: 108 % of control

CC1(C)C=Cc2c(ccc3c(=O)c(-c4ccccc4)coc23)O1
T/C [10]: 94 % of control | T/C [11]: 98 % of control | T/C [12]: 93 % of control

CN(C)CCOC(=O)Nc1ccc(Cc2ccc(NC(=O)OCCN(C)C)cc2)cc1
T/C (dose: 15.0 mg/kg/injection, schedule: Q01DX005 (ip), vehicle: saline with Tween-80): 109 % of control | T/C (dose: 30.0 mg/kg/injection, schedule: Q01DX005 (ip), vehicle: saline with Tween-80): 101 % of control | T/C [10]: 101 % of control and 109 % of control

CCN(C)c1cc(=O)c2c(ccc3ccccc32)o1
T/C [7]: 94 % of control | T/C [8]: 101 % of control | T/C [9]: 95 % of control

Cc1ccc(-c2nc3sccn3c2C=O)cc1
T/C [16]: 95 % of control | T/C [17]: 96 % of control | T/C [18]: 96 % of control

Cc1[nH]nc2c1NC(=O)OC(C)C2 (stereo not given)
T/C [19]: 101 % of control | T/C [20]: 101 % of control | T/C (dose: 200.0 mg/kg/injection, schedule: Q01DX005 (ip), vehicle: saline with Tween-80): 106 % of control

Nc1ncnc2nc(-c3ccc(SCc4ccccc4)cc3)[nH]c12
T/C [10]: 95 % of control | T/C [11]: 94 % of control | T/C [12]: 93 % of control

CCOC(=O)c1cnc2cc3c(cc2c1Nc1cccc(Cl)c1)OCO3
T/C [1]: 105 % of control | T/C [2]: 95 % of control | T/C [3]: 108 % of control
